Test: xn = mol fraction of the nth substance listed
Conditions: 101 kPa, Liquid; for speed of sound: Linear variable-path acoustic interferometer

ClC(Cl)Cl [trichloromethane] + CCCCO
Conditions	mass density, 298.15 K [kg/m3]	mass density, 308.15 K [kg/m3]	speed of sound, 298.15 K [m/s]	speed of sound, 308.15 K [m/s]	viscosity, 298.15 K [mPa·s]	viscosity, 308.15 K [mPa·s]
x1 = 0.0512	836.7	828.27	1215	1190	2.407	1.883
x1 = 0.1	865.9	857	1198	1171	2.248	1.764
x1 = 0.149	895.66	886.25	1180	1153	2.056	1.628
x1 = 0.2009	927.49	917.55	1163	1134	1.872	1.501
x1 = 0.2506	958.3	947.84	1146	1116	1.705	1.372
x1 = 0.2999	989.27	978.3	1130	1099	1.543	1.26
x1 = 0.3659	1031.4	1019.75	1110	1078	1.351	1.114
x1 = 0.407	1057.94	1045.83	1097	1065	1.245	1.035
x1 = 0.4515	1087.02	1074.42	1085	1051	1.139	0.957
x1 = 0.4997	1118.91	1105.67	1071	1037	1.041	0.886
x1 = 0.5502	1152.78	1138.99	1058	1024	0.945	0.815
x1 = 0.6012	1187.46	1173.05	1045	1011	0.877	0.76
x1 = 0.6527	1223.02	1207.99	1033	998	0.804	0.71
x1 = 0.7021	1257.69	1241.99	1022	987	0.755	0.67
x1 = 0.7519	1293.2	1276.84	1013	978	0.715	0.643
x1 = 0.8021	1329.4	1312.4	1004	969	0.67	0.607
x1 = 0.8518	1365.91	1348.31	997	962	0.654	0.595
x1 = 0.9024	1403.63	1385.4	992	956	0.614	0.565
x1 = 0.951	1440.79	1421.97	987	952	0.596	0.546
x1 = 1	1478.82	1459.45	985	950	0.556	0.513
